Reference: the NIST ThermoML archive (doi:10.1021/je201002j)
± gives the expanded uncertainty stated by the source.

Columns and labels:
[1] = molar heat capacity at constant pressure; details: 101.33 kPa, Liquid, Small sample (50 mg) DSC
[2] = 101.33 kPa, Liquid, Vibrating tube method

For `BrCCCCCCCCCCCBr` [1,11-dibromoundecane], the “molar heat capacity at constant pressure” value ([1]; 285.15 K) was 389.4 ± 6.7 J/K/mol, the “molar heat capacity at constant pressure” value ([1]; 286.65 K) was 389.99 ± 6.8 J/K/mol and the “molar heat capacity at constant pressure” value ([1]; 288.15 K) was 390.59 ± 6.8 J/K/mol. The “molar heat capacity at constant pressure” value ([1]; 289.65 K) was 391.2 ± 6.8 J/K/mol, the “molar heat capacity at constant pressure” value ([1]; 291.15 K) was 391.83 ± 6.8 J/K/mol and the “molar heat capacity at constant pressure” value ([1]; 292.65 K) was 392.47 ± 6.8 J/K/mol. The “molar heat capacity at constant pressure” value ([1]; 294.15 K) was 393.12 ± 6.8 J/K/mol, the “molar heat capacity at constant pressure” value ([1]; 295.65 K) was 393.79 ± 6.8 J/K/mol and the “molar heat capacity at constant pressure” value ([1]; 297.15 K) was 394.47 ± 6.8 J/K/mol. The “molar heat capacity at constant pressure” value ([1]; 298.15 K) was 394.92 ± 6.8 J/K/mol, the “molar heat capacity at constant pressure” value ([1]; 298.65 K) was 395.16 ± 6.8 J/K/mol and the “molar heat capacity at constant pressure” value ([1]; 300.15 K) was 395.85 ± 6.9 J/K/mol. For the same compound, the “molar heat capacity at constant pressure” value ([1]; 301.65 K) was 396.56 ± 6.9 J/K/mol, the “molar heat capacity at constant pressure” value ([1]; 303.15 K) was 397.28 ± 6.9 J/K/mol and the “molar heat capacity at constant pressure” value ([1]; 304.65 K) was 398.01 ± 6.9 J/K/mol. For the same compound, the “molar heat capacity at constant pressure” value ([1]; 306.15 K) was 398.75 ± 6.9 J/K/mol, the “molar heat capacity at constant pressure” value ([1]; 307.65 K) was 399.5 ± 6.9 J/K/mol and the “molar heat capacity at constant pressure” value ([1]; 309.15 K) was 400.25 ± 6.9 J/K/mol. For the same compound, the “molar heat capacity at constant pressure” value ([1]; 310.65 K) was 401.02 ± 7 J/K/mol, the “molar heat capacity at constant pressure” value ([1]; 312.15 K) was 401.79 ± 7 J/K/mol and the “molar heat capacity at constant pressure” value ([1]; 313.65 K) was 402.57 ± 7 J/K/mol. For the same compound, the “molar heat capacity at constant pressure” value ([1]; 315.15 K) was 403.35 ± 7 J/K/mol, the “molar heat capacity at constant pressure” value ([1]; 316.65 K) was 404.15 ± 7 J/K/mol and the “molar heat capacity at constant pressure” value ([1]; 318.15 K) was 404.94 ± 7 J/K/mol. The “molar heat capacity at constant pressure” value ([1]; 319.65 K) was 405.75 ± 7 J/K/mol, the “molar heat capacity at constant pressure” value ([1]; 321.15 K) was 406.56 ± 7 J/K/mol and the “molar heat capacity at constant pressure” value ([1]; 322.65 K) was 407.37 ± 7.1 J/K/mol. For the same compound, the “molar heat capacity at constant pressure” value ([1]; 324.15 K) was 408.19 ± 7.1 J/K/mol, the “molar heat capacity at constant pressure” value ([1]; 325.65 K) was 409.01 ± 7.1 J/K/mol and the “molar heat capacity at constant pressure” value ([1]; 327.15 K) was 409.84 ± 7.1 J/K/mol. The “molar heat capacity at constant pressure” value ([1]; 328.65 K) was 410.67 ± 7.1 J/K/mol, the “molar heat capacity at constant pressure” value ([1]; 330.15 K) was 411.5 ± 7.1 J/K/mol and the “molar heat capacity at constant pressure” value ([1]; 331.65 K) was 412.33 ± 7.1 J/K/mol. For the same compound, the “molar heat capacity at constant pressure” value ([1]; 333.15 K) was 413.17 ± 7.2 J/K/mol, the “molar heat capacity at constant pressure” value ([1]; 334.65 K) was 414.01 ± 7.2 J/K/mol and the “molar heat capacity at constant pressure” value ([1]; 336.15 K) was 414.84 ± 7.2 J/K/mol. For the same compound, the “molar heat capacity at constant pressure” value ([1]; 337.65 K) was 415.68 ± 7.2 J/K/mol, the “molar heat capacity at constant pressure” value ([1]; 339.15 K) was 416.53 ± 7.2 J/K/mol and the “molar heat capacity at constant pressure” value ([1]; 340.65 K) was 417.37 ± 7.2 J/K/mol. The “molar heat capacity at constant pressure” value ([1]; 342.15 K) was 418.21 ± 7.2 J/K/mol, the “molar heat capacity at constant pressure” value ([1]; 343.65 K) was 419.04 ± 7.3 J/K/mol and the “molar heat capacity at constant pressure” value ([1]; 345.15 K) was 419.88 ± 7.3 J/K/mol. The “molar heat capacity at constant pressure” value ([1]; 346.65 K) was 420.72 ± 7.3 J/K/mol, the “molar heat capacity at constant pressure” value ([1]; 348.15 K) was 421.55 ± 7.3 J/K/mol and the “molar heat capacity at constant pressure” value ([1]; 349.65 K) was 422.38 ± 7.3 J/K/mol. The “molar heat capacity at constant pressure” value ([1]; 351.15 K) was 423.21 ± 7.3 J/K/mol, the “molar heat capacity at constant pressure” value ([1]; 352.65 K) was 424.04 ± 7.3 J/K/mol and the “molar heat capacity at constant pressure” value ([1]; 354.15 K) was 424.86 ± 7.4 J/K/mol. The “molar heat capacity at constant pressure” value ([1]; 355.15 K) was 425.41 ± 7.4 J/K/mol.
Compound `ClCCCCCCBr` [1-bromo-6-chlorohexane] has a mass density ([2]; 288.15 K) of 1345.17 ± 3.5 kg/m3, a mass density ([2]; 298.15 K) of 1336.47 ± 3.5 kg/m3 and a mass density ([2]; 308.15 K) of 1327.17 ± 3.4 kg/m3. For the same compound, the mass density ([2]; 318.15 K) was 1316.45 ± 3.4 kg/m3.
For `ClCCCBr` [1-bromo-3-chloropropane], the mass density ([2]; 288.15 K) was 1601.96 ± 0.78 kg/m3, the mass density ([2]; 298.15 K) was 1588.17 ± 0.77 kg/m3 and the mass density ([2]; 308.15 K) was 1574.87 ± 0.75 kg/m3. For the same compound, the mass density ([2]; 318.15 K) was 1560.65 ± 0.74 kg/m3.
In the case of `BrCCCCCCCCBr` [1,8-dibromooctane], the “molar heat capacity at constant pressure” value ([1]; 288.15 K) is reported as 302.23 ± 5.2 J/K/mol, the “molar heat capacity at constant pressure” value ([1]; 289.65 K) is reported as 302.83 ± 5.2 J/K/mol and the “molar heat capacity at constant pressure” value ([1]; 291.15 K) is reported as 303.43 ± 5.3 J/K/mol. For the same compound, the “molar heat capacity at constant pressure” value ([1]; 292.65 K) was 304.03 ± 5.3 J/K/mol, the “molar heat capacity at constant pressure” value ([1]; 294.15 K) was 304.63 ± 5.3 J/K/mol and the “molar heat capacity at constant pressure” value ([1]; 295.65 K) was 305.23 ± 5.3 J/K/mol. For the same compound, the “molar heat capacity at constant pressure” value ([1]; 297.15 K) was 305.83 ± 5.3 J/K/mol, the “molar heat capacity at constant pressure” value ([1]; 298.15 K) was 306.23 ± 5.3 J/K/mol and the “molar heat capacity at constant pressure” value ([1]; 298.65 K) was 306.43 ± 5.3 J/K/mol. For the same compound, the “molar heat capacity at constant pressure” value ([1]; 300.15 K) was 307.03 ± 5.3 J/K/mol, the “molar heat capacity at constant pressure” value ([1]; 301.65 K) was 307.63 ± 5.3 J/K/mol and the “molar heat capacity at constant pressure” value ([1]; 303.15 K) was 308.23 ± 5.3 J/K/mol. For the same compound, the “molar heat capacity at constant pressure” value ([1]; 304.65 K) was 308.82 ± 5.3 J/K/mol, the “molar heat capacity at constant pressure” value ([1]; 306.15 K) was 309.42 ± 5.4 J/K/mol and the “molar heat capacity at constant pressure” value ([1]; 307.65 K) was 310.02 ± 5.4 J/K/mol. The “molar heat capacity at constant pressure” value ([1]; 309.15 K) was 310.61 ± 5.4 J/K/mol, the “molar heat capacity at constant pressure” value ([1]; 310.65 K) was 311.21 ± 5.4 J/K/mol and the “molar heat capacity at constant pressure” value ([1]; 312.15 K) was 311.8 ± 5.4 J/K/mol. For the same compound, the “molar heat capacity at constant pressure” value ([1]; 313.65 K) was 312.39 ± 5.4 J/K/mol, the “molar heat capacity at constant pressure” value ([1]; 315.15 K) was 312.99 ± 5.4 J/K/mol and the “molar heat capacity at constant pressure” value ([1]; 316.65 K) was 313.58 ± 5.4 J/K/mol. The “molar heat capacity at constant pressure” value ([1]; 318.15 K) was 314.17 ± 5.4 J/K/mol, the “molar heat capacity at constant pressure” value ([1]; 319.65 K) was 314.76 ± 5.5 J/K/mol and the “molar heat capacity at constant pressure” value ([1]; 321.15 K) was 315.35 ± 5.5 J/K/mol. For the same compound, the “molar heat capacity at constant pressure” value ([1]; 322.65 K) was 315.94 ± 5.5 J/K/mol, the “molar heat capacity at constant pressure” value ([1]; 324.15 K) was 316.53 ± 5.5 J/K/mol and the “molar heat capacity at constant pressure” value ([1]; 325.65 K) was 317.12 ± 5.5 J/K/mol. The “molar heat capacity at constant pressure” value ([1]; 327.15 K) was 317.71 ± 5.5 J/K/mol, the “molar heat capacity at constant pressure” value ([1]; 328.65 K) was 318.3 ± 5.5 J/K/mol and the “molar heat capacity at constant pressure” value ([1]; 330.15 K) was 318.88 ± 5.5 J/K/mol. For the same compound, the “molar heat capacity at constant pressure” value ([1]; 331.65 K) was 319.47 ± 5.5 J/K/mol, the “molar heat capacity at constant pressure” value ([1]; 333.15 K) was 320.05 ± 5.5 J/K/mol and the “molar heat capacity at constant pressure” value ([1]; 334.65 K) was 320.64 ± 5.5 J/K/mol. The “molar heat capacity at constant pressure” value ([1]; 336.15 K) was 321.22 ± 5.6 J/K/mol, the “molar heat capacity at constant pressure” value ([1]; 337.65 K) was 321.81 ± 5.6 J/K/mol and the “molar heat capacity at constant pressure” value ([1]; 339.15 K) was 322.39 ± 5.6 J/K/mol. For the same compound, the “molar heat capacity at constant pressure” value ([1]; 340.65 K) was 322.97 ± 5.6 J/K/mol, the “molar heat capacity at constant pressure” value ([1]; 342.15 K) was 323.56 ± 5.6 J/K/mol and the “molar heat capacity at constant pressure” value ([1]; 343.65 K) was 324.14 ± 5.6 J/K/mol. For the same compound, the “molar heat capacity at constant pressure” value ([1]; 345.15 K) was 324.72 ± 5.6 J/K/mol, the “molar heat capacity at constant pressure” value ([1]; 346.65 K) was 325.3 ± 5.6 J/K/mol and the “molar heat capacity at constant pressure” value ([1]; 348.15 K) was 325.88 ± 5.6 J/K/mol. The “molar heat capacity at constant pressure” value ([1]; 349.65 K) was 326.46 ± 5.7 J/K/mol, the “molar heat capacity at constant pressure” value ([1]; 351.15 K) was 327.04 ± 5.7 J/K/mol and the “molar heat capacity at constant pressure” value ([1]; 352.65 K) was 327.62 ± 5.7 J/K/mol. The “molar heat capacity at constant pressure” value ([1]; 354.15 K) was 328.19 ± 5.7 J/K/mol and the “molar heat capacity at constant pressure” value ([1]; 355.15 K) was 328.58 ± 5.7 J/K/mol.
`ClCCCCCBr` [1-bromo-5-chloropentane] gave a mass density ([2]; 288.15 K) of 1409.7 ± 1.8 kg/m3, a mass density ([2]; 298.15 K) of 1399.37 ± 1.8 kg/m3 and a mass density ([2]; 308.15 K) of 1388.77 ± 1.7 kg/m3. For the same compound, the mass density ([2]; 318.15 K) was 1377.96 ± 1.7 kg/m3.
For `ClCCBr` [1-bromo-2-chloroethane], the mass density ([2]; 288.15 K) was 1742.45 ± 2.8 kg/m3, the mass density ([2]; 298.15 K) was 1726.56 ± 2.7 kg/m3 and the mass density ([2]; 308.15 K) was 1710.57 ± 2.7 kg/m3. It also gave a mass density ([2]; 318.15 K) of 1693.61 ± 2.6 kg/m3.
